Measurements published in patent publication US20110245104A1, “Method for screening the sensitizing properties of chemical compounds” (priority 2010, published 2011).

Key:
human skin excerpts = test: Labeling of human skin excerpts by caged haptens
From the text: The first step is that the molecules come into contact with the skin (the stratum corneum). Many of the reactive molecules react in the stratum corneum, something that can be seen in experiments with human skin excerpts and the caged (mBBr and dBBr) haptens. However, a significant proportion of the molecules penetrate further down to the suprabasal layers of the epidermis but also the follicular pathway is of importance for bringing xenobiotics into the skin. It is likely that the penetration is due both to the acidic pH of the stratum corneum (the molecules react more slowly when the pH is low), but also because many of the available groups have reacted. In the suprabasal layers, the haptens have a hard time penetrating the cells, as the cornification of the cells creates a thick, relatively impermeable envelope around the suprabasal cells. Consequently, the haptens penetrate down to the basal layer. Here, the cell membrane is much thinner and more fluidic and the molecules can thus enter the basal cells.

[1] = test system: serum amyloid P component (SAP); test: Serum amyloid P component (SAP) in sera of mice exposed to sensitizers; assay type: in vivo; conditions: sera of mice exposed to sensitizer
[2] = test system: anti-nuclear antibodies (ANA); test: Anti-nuclear antibodies (ANA) in sera of mice topically exposed to haptens; assay type: in vivo; conditions: topical exposure
keratins = test: Protein cross-linking by bidentate haptens (SDS gels of blebs); assay type: cell-based, human; conditions: bidentate hapten
From the text: In SDS-PAGE experiments it was shown that thiol-, amine-, and arginine-reactive sensitizers give rise to blebs that contain the same proteins. […] It was also shown that the sensitizing compounds also modify other proteins and that these proteins are released in blebs, as visualized by fluorescent bands on SDS-gels.

SMILES: Cc1c(CBr)n2c(CBr)c(C)c(=O)n2c1=O [dBBr, dibromobimane]
- Labeling of cells in the basal layer (human skin excerpts): cells in the basal layer are labeled
- Level of serum amyloid P component (SAP) [1]: increased levels
- Level of anti-nuclear antibodies (ANA) in sera [2]: increased levels
- Cross-links between keratins (keratins): cause cross-links
